One experiment relates to Soy. The experiment is described as follows: Tolerance rates for soybean (injury score 0-9).
Another experiment concerns Corn. In words: Tolerance rates for corn (injury score 0-9).

Where “and” joins values, the source holds several entries; their conditions need not be identical. Equal entries are not always repeated.

Turning to `Cc1nn(-c2cc(NS(C)(=O)=O)c(Cl)cc2Cl)c(=O)n1C(F)F` [sulfentrazone], the injury score is 9 and 6 and 3 and 5 in the experiment on Soy (Sulfentrazone 350 g ai/ha, amino acid substitution L397D_F420V Event A, SEQ ID NO 2); 4 and 5 and 6 in the experiment with Soy (Sulfentrazone 350 g ai/ha, amino acid substitution L397D_F420V Event B, SEQ ID NO 2); 9 and 7 and 8 in the experiment with Soy (Sulfentrazone 350 g ai/ha, amino acid substitution none, SEQ ID NO none); 2 and 3 and 7 and 1 and 4 and 6 in the experiment on Soy (Sulfentrazone 700 g ai/ha, amino acid substitution L397D_F420V Event A, SEQ ID NO 2); 4 and 5 and 6 in the experiment on Soy (Sulfentrazone 700 g ai/ha, amino acid substitution L397D_F420V Event B, SEQ ID NO 2); 9 with Soy (Sulfentrazone 700 g ai/ha, amino acid substitution none, SEQ ID NO none).
In the case of `CCOc1cc(Oc2ccc(C(F)(F)F)cc2Cl)ccc1[N+](=O)[O-]` [Oxyfluorfen], the injury score was 4 and 5 and 6 and 9 in the experiment on Soy (Oxyfluorfen 600 g ai/ha, amino acid substitution L397D_F420V Event A, SEQ ID NO 2); 6 and 4 and 8 and 5 in the experiment on Soy (Oxyfluorfen 600 g ai/ha, amino acid substitution L397D_F420V Event B, SEQ ID NO 2); 8 and 7 and 9 in the experiment with Soy (Oxyfluorfen 600 g ai/ha, amino acid substitution none, SEQ ID NO none); 5 and 4 and 3 in the experiment with Soy (Oxyfluorfen 1200 g ai/ha, amino acid substitution L397D_F420V Event A, SEQ ID NO 2); 5 and 4 and 6 in the experiment with Soy (Oxyfluorfen 1200 g ai/ha, amino acid substitution L397D_F420V Event B, SEQ ID NO 2); 9 and 8 in the experiment with Soy (Oxyfluorfen 1200 g ai/ha, amino acid substitution none, SEQ ID NO none).
For `CC(C)N(C)S(=O)(=O)NC(=O)c1cc(-n2c(=O)cc(C(F)(F)F)n(C)c2=O)c(F)cc1Cl` [saflufenacil], in the experiment with Corn (Corn events with PPO L397D, F420M (SEQ ID NO 2), Saflufenacil 25 g ai/ha), the “Tolerance rate (injury score), Saflufenacil 25 g ai/ha” value was 2 and 3 and 1. Moreover, the “Tolerance rate (injury score), Saflufenacil 50 g ai/ha” value in the experiment with Corn (Corn events with PPO L397D, F420M (SEQ ID NO 2), Saflufenacil 50 g ai/ha) was 1 and 2 and 3 and 0. For the same compound, the “Tolerance rate (injury score), Saflufenacil 100 g ai/ha” value in the experiment on Corn (Corn events with PPO L397D, F420M (SEQ ID NO 2), Saflufenacil 100 g ai/ha) is 7 and 3; with Corn (Corn events with PPO L397E, F420M (SEQ ID NO 2), Saflufenacil 100 g ai/ha), 1 and 0 and 7; in the experiment on Corn (Corn events with PPO L397Q (SEQ ID NO 2), Saflufenacil 100 g ai/ha) it was 4 and 5; with Corn (Corn events with PPO L397Q, F420M (SEQ ID NO 2), Saflufenacil 100 g ai/ha) it was 0 and 1; with Corn (Corn events with PPO L397Q, F420V (SEQ ID NO 2), Saflufenacil 100 g ai/ha), 4 and 2 and 3 and 7 and 5; with Corn (Corn events, amino acid substitution not given, Saflufenacil 100 g ai/ha), 1. Further, the “Tolerance rate (injury score), corn” value in the experiment on Corn (Saflufenacil 25 g ai/ha, corn events 37-53, amino acid substitution not given) is 6 and 7 and 5 and 8 and 4; in the experiment on Corn (Saflufenacil 25 g ai/ha, corn events with PPO substitution F420L (SEQ ID NO 2)) it was 6 and 7; with Corn (Saflufenacil 25 g ai/ha, corn events with PPO substitution F420M (SEQ ID NO 2)), 4 and 6 and 8 and 7 and 5; in the experiment on Corn (Saflufenacil 25 g ai/ha, corn events with PPO substitution L397D, F420V (SEQ ID NO 2)), 6 and 5 and 7; in the experiment with Corn (Saflufenacil 25 g ai/ha, corn events with PPO substitution L397E, F420V (SEQ ID NO 2)), 1 and 0 and 3; with Corn (Saflufenacil 50 g ai/ha, corn events 54-81, amino acid substitution not given) it was 6 and 7 and 4 and 5. Besides, the “Tolerance rate (injury score), corn” value was 7 and 8 and 6 with Corn (Saflufenacil 50 g ai/ha, corn events with PPO substitution F420L (SEQ ID NO 2)); 7 and 6 and 8 in the experiment on Corn (Saflufenacil 50 g ai/ha, corn events with PPO substitution F420M (SEQ ID NO 2)); 4 and 6 and 7 in the experiment on Corn (Saflufenacil 50 g ai/ha, corn events with PPO substitution L397D, F420V (SEQ ID NO 2)); 1 and 0 and 2 and 3 in the experiment with Corn (Saflufenacil 50 g ai/ha, corn events with PPO substitution L397E, F420V (SEQ ID NO 2)); 8 and 7 and 6 with Corn (Saflufenacil 100 g ai/ha, corn events with PPO substitution F420L (SEQ ID NO 2)); 0 and 1 and 3 and 2 with Corn (Saflufenacil 100 g ai/ha, corn events with PPO substitution L397E, F420V (SEQ ID NO 2)). Besides, the injury score with Soy (Soy, saflufenacil 12.5 g ai/ha, amino acid substitution F420L, SEQ ID NO 2) is 1 and 0 and 3; in the experiment with Soy (Soy, saflufenacil 12.5 g ai/ha, amino acid substitution L369D, F392V, SEQ ID NO 40), 9 and 7 and 4 and 5 and 6; in the experiment on Soy (Soy, saflufenacil 12.5 g ai/ha, amino acid substitution L397E, SEQ ID NO 2), 5 and 4 and 0 and 3; with Soy (Soy, saflufenacil 12.5 g ai/ha, amino acid substitution L397Q, SEQ ID NO 2) it was 4; with Soy (Soy, saflufenacil 12.5 g ai/ha, amino acid substitution none, SEQ ID NO 2), 2 and 4 and 7 and 8 and 5; in the experiment on Soy (Soy, saflufenacil 12.5 g ai/ha, amino acid substitution none, SEQ ID NO 40), 9 and 3 and 4 and 8 and 7. The injury score was 9 and 0 and 2 in the experiment with Soy (Soy, saflufenacil 25 g ai/ha, amino acid substitution F420L, SEQ ID NO 2); 9 and 5 and 6 and 7 and 4 in the experiment with Soy (Soy, saflufenacil 25 g ai/ha, amino acid substitution L369D, F392V, SEQ ID NO 40); 7 and 2 and 9 and 5 and 3 in the experiment on Soy (Soy, saflufenacil 25 g ai/ha, amino acid substitution L397D, SEQ ID NO 2); 3 and 6 and 4 and 5 and 1 in the experiment on Soy (Soy, saflufenacil 25 g ai/ha, amino acid substitution L397E, SEQ ID NO 2); 3 with Soy (Soy, saflufenacil 25 g ai/ha, amino acid substitution L397Q, SEQ ID NO 2); 4 and 3 and 7 and 9 and 8 in the experiment on Soy (Soy, saflufenacil 25 g ai/ha, amino acid substitution none, SEQ ID NO 2). The injury score in the experiment with Soy (Soy, saflufenacil 25 g ai/ha, amino acid substitution none, SEQ ID NO 40) was 9 and 6; in the experiment on Soy (Soy, saflufenacil 50 g ai/ha, amino acid substitution F420L, SEQ ID NO 2), 9 and 0 and 2; with Soy (Soy, saflufenacil 50 g ai/ha, amino acid substitution L369D, F392V, SEQ ID NO 40), 9 and 6 and 7 and 5; in the experiment with Soy (Soy, saflufenacil 50 g ai/ha, amino acid substitution L397D, SEQ ID NO 2), 9 and 4 and 3 and 6 and 5; in the experiment with Soy (Soy, saflufenacil 50 g ai/ha, amino acid substitution L397E, F420M, SEQ ID NO 2) it was 1 and 0 and 2; in the experiment with Soy (Soy, saflufenacil 50 g ai/ha, amino acid substitution L397E, SEQ ID NO 2), 3 and 6 and 4 and 7. Moreover, the injury score with Soy (Soy, saflufenacil 50 g ai/ha, amino acid substitution L397Q, F420M, SEQ ID NO 2) was 0 and 6 and 1 and 5 and 4; in the experiment with Soy (Soy, saflufenacil 50 g ai/ha, amino acid substitution L397Q, F420V, SEQ ID NO 2), 0 and 7; with Soy (Soy, saflufenacil 50 g ai/ha, amino acid substitution L397Q, SEQ ID NO 2), 8; in the experiment with Soy (Soy, saflufenacil 50 g ai/ha, amino acid substitution none, SEQ ID NO 2), 7 and 8 and 9 and 6; with Soy (Soy, saflufenacil 50 g ai/ha, amino acid substitution none, SEQ ID NO 40) it was 9 and 8; in the experiment on Soy (Soy, saflufenacil 100 g ai/ha, amino acid substitution F420L, SEQ ID NO 2), 9. Further, the injury score in the experiment on Soy (Soy, saflufenacil 100 g ai/ha, amino acid substitution L369D, F392V, SEQ ID NO 40) was 9 and 6; in the experiment on Soy (Soy, saflufenacil 100 g ai/ha, amino acid substitution L397D, SEQ ID NO 2), 9 and 4 and 6 and 5; with Soy (Soy, saflufenacil 100 g ai/ha, amino acid substitution L397E, F420M, SEQ ID NO 2), 2 and 0 and 1; in the experiment with Soy (Soy, saflufenacil 100 g ai/ha, amino acid substitution L397Q, F420M, SEQ ID NO 2), 0 and 7 and 3 and 6 and 1 and 2; with Soy (Soy, saflufenacil 100 g ai/ha, amino acid substitution L397Q, F420V, SEQ ID NO 2) it was 0 and 7.
As to `C#CCN1C(=O)COc2cc(F)c(N3C(=O)C4=C(CCCC4)C3=O)cc21` [flumioxazin], the injury score is 9 and 6 and 5 and 4 in the experiment with Soy (Flumioxazin 150 g ai/ha, amino acid substitution L397D_F420V Event A, SEQ ID NO 2); 5 and 6 and 4 with Soy (Flumioxazin 150 g ai/ha, amino acid substitution L397D_F420V Event B, SEQ ID NO 2); 9 in the experiment on Soy (Flumioxazin 150 g ai/ha, amino acid substitution none, SEQ ID NO none).
With `CS(=O)(=O)NC(=O)c1cc(Oc2ccc(C(F)(F)F)cc2Cl)ccc1[N+](=O)[O-]` [fomesafen], the injury score in the experiment on Soy (Fomesafen 600 g ai/ha, amino acid substitution L397D_F420V Event A, SEQ ID NO 2) was 1 and 2 and 0 and 4; with Soy (Fomesafen 600 g ai/ha, amino acid substitution L397D_F420V Event B, SEQ ID NO 2), 2 and 4 and 1 and 3; with Soy (Fomesafen 600 g ai/ha, amino acid substitution none, SEQ ID NO none), 5 and 4.
